The record followed here is patent publication US12247015B2, “3-amino-4H-benzo[e][1,2,4]thiadiazine 1,1-dioxide derivatives as inhibitors of MRGX2” (Solent Therapeutics, LLC, priority 2019, dated 2025).

SMILES strings stand for the structures.

The target in the assay is hMRGX2 (CHO-K1 cells overexpressing MRGX2) (Homo sapiens (Human), UniProt Q96LB1). Briefly: In vitro inhibition (EC50) of intracellular calcium flux, FLIPR Tetra, substance P stimulation. In kind it is cell-based. The settings on record: stimulated with MRGX2 ligand substance P, FLIPR Calcium 5, read-out: hMRGX2 Cellular Potency (pEC50) (converted). Here is the method: In Vitro Inhibition (EC50) of Intracellular Calcium Flux
hMRGX2 (CHO-K1 cells overexpressing MRGX2), sequence (Q96LB1 whole entry): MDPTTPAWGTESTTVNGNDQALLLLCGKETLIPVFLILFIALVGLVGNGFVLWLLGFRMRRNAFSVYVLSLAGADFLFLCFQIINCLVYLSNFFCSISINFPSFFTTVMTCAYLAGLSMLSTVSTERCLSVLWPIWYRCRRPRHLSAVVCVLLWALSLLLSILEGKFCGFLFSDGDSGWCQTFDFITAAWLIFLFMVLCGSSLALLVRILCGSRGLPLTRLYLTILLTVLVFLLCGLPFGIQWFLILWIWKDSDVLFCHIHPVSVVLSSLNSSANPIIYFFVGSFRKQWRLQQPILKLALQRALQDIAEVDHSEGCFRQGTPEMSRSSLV
The release of intracellular calcium following stimulation of cells with substance P in the presence or absence of inhibitor compounds was measured using the FLIPR Tetra® system. CHO-K1 cells overexpressing MRGX2 were seeded into 384-well plates (Black clear bottom, TC-treated, Fisher #07-200-655) and incubated overnight to allow for cell attachment. Media was removed, and 1× loading buffer (FLIPR® Calcium 5 assay solution, Molecular Devices, per manufacturer specifications) was added. The plates were incubated at 37° C. for 30 minutes. Test compounds were added to cells (11-point dose response, 10 µM maximum concentration) and fluorescence measured (120 seconds, in real time) using the FLIPR Tetra® system. Immediately following, MRGX2 ligand substance P was added at a final concentration of 1 µM and fluorescence measured (120 seconds, in real time) using the FLIPR Tetra® system. The data for the examples are reported as pEC50.
In general terms: A change in cytosolic calcium serves as a functional read-out for many receptors and channels.
For the compound `Cc1cccc(CNC2=NS(=O)(=O)c3cccc(-c4cc(F)cc(F)c4)c3N2)n1` [Example 79, 5-(3,5-difluorophenyl)-3-(((6-methylpyridin-2-yl)methyl)amino)-4H-benzo[e][1,2,4]thiadiazine 1,1-dioxide], the EC50 was 368 nM.
As for `O=S1(=O)N=C(NCCc2ccccn2)Nc2c(-c3cc(F)cc(F)c3)cccc21` [Example 80, 5-(3,5-difluorophenyl)-3-((2-(pyridin-2-yl)ethyl)amino)-4H-benzo[e][1,2,4]thiadiazine 1,1-dioxide], the EC50 was 897 nM.
For `O=S1(=O)N=C(NCC2CCC2)Nc2c(-c3cc(F)cc(F)c3)cccc21` [Example 81, 3-((cyclobutylmethyl)amino)-5-(3,5-difluorophenyl)-4H-benzo[e][1,2,4]thiadiazine 1,1-dioxide], the EC50 is 384 nM.
For the compound `O=S1(=O)N=C(NCc2ccncc2)Nc2c(-c3cc(F)cc(F)c3)cccc21` [Example 82, 5-(3,5-difluorophenyl)-3-((pyridin-4-ylmethyl)amino)-4H-benzo[e][1,2,4]thiadiazine 1,1-dioxide], the EC50 was 1010 nM.
The result for `O=S1(=O)N=C(NCc2ccccn2)Nc2c(-c3cc(F)cc(F)c3)cccc21` [Example 83, 5-(3,5-difluorophenyl)-3-((pyridin-2-ylmethyl)amino)-4H-benzo[e][1,2,4]thiadiazine 1,1-dioxide] reads 423 nM.
For the compound `CCC(CNC1=NS(=O)(=O)c2cccc(-c3cc(F)cc(F)c3)c2N1)OC` (stereo not drawn) [Example 87, 5-(3,5-difluorophenyl)-3-((2-methoxybutyl)amino)-4H-benzo[e][1,2,4]thiadiazine 1,1-dioxide], the EC50 was 240 nM.
With `O=S1(=O)N=C(NCc2ccccc2)Nc2c(-c3cc(F)cc(F)c3)cccc21` [Example 88, 3-(benzylamino)-5-(3,5-difluorophenyl)-4H-benzo[e][1,2,4]thiadiazine 1,1-dioxide] the figure was 75.2 nM; with `CNC1=NS(=O)(=O)c2cccc(-c3cc(Cl)ccc3C#N)c2N1` [Example 90, 4-chloro-2-(3-(methylamino)-1,1-dioxido-4H-benzo[e][1,2,4]thiadiazin-5-yl)benzonitrile], 973 nM.
With `CCc1ccccc1-c1cccc2c1NC(NC)=NS2(=O)=O` [Example 91, 5-(2-ethylphenyl)-3-(methylamino)-4H-benzo[e][1,2,4]thiadiazine 1,1-dioxide] the figure was 81.8 nM; with `CNC1=NS(=O)(=O)c2cccc(-c3ccc(C)cc3Cl)c2N1` [Example 92, 5-(2-chloro-4-methylphenyl)-3-(methylamino)-4H-benzo[e][1,2,4]thiadiazine 1,1-dioxide], 92.7 nM; with `CNC1=NS(=O)(=O)c2cccc(-c3cc(F)ccc3Cl)c2N1` [Example 93, 5-(2-chloro-5-fluorophenyl)-3-(methylamino)-4H-benzo[e][1,2,4]thiadiazine 1,1-dioxide], 181 nM.
With `CNC1=NS(=O)(=O)c2cccc(-c3ccc(F)cc3Cl)c2N1` [Example 94, 5-(2-chloro-4-fluorophenyl)-3-(methylamino)-4H-benzo[e][1,2,4]thiadiazine 1,1-dioxide] the figure was 235 nM; with `CNC1=NS(=O)(=O)c2cccc(-c3cccc(F)c3C)c2N1` [Example 95, 5-(3-fluoro-2-methylphenyl)-3-(methylamino)-4H-benzo[e][1,2,4]thiadiazine 1,1-dioxide], 350 nM; with `CNC1=NS(=O)(=O)c2cccc(-c3cc(F)cc(F)c3F)c2N1` [Example 96, 3-(methylamino)-5-(2,3,5-trifluorophenyl)-4H-benzo[e][1,2,4]thiadiazine 1,1-dioxide], 598 nM.
For the compound `CNC1=NS(=O)(=O)c2cc(C)cc(-c3cccc(F)c3Cl)c2N1` [Example 97, 5-(2-chloro-3-fluorophenyl)-7-methyl-3-(methylamino)-4H-benzo[e][1,2,4]thiadiazine 1,1-dioxide], the EC50 is 589 nM.
